In patent US10842806B2, “Methods for treating ocular inflammatory disorders” (Massachusetts Eye and Ear Infirmary, priority 2011, dated 2020):

Columns and labels:
[1] = test system: IRBP-reactive T cells (LN cells); assay: LN cells from untreated EAU mice cultured with IRBP peptide in the presence of AICAR; assay type: cell-based
Description: To measure cell proliferation, LN cells were resuspended at 5×10^5 cells per 200 μl of medium in 96-well flat-bottom plates. Cells were incubated for 72 hours and proliferation during the last 12 hours was measured by using a bromodeoxyuridine (BrdU) cell proliferation assay kit (Millipore, Billerica, Mass.). Supernatant in the culture medium was collected at 48 hours and cytokine production in the supernatant was measured by ELISA using the Quantikine mouse IFN-γ, IL-4, IL-10 and IL-17 kits (R&D system, Minneapolis, Minn.).
To assess the effect of AICAR on already developed IRBP-specific T cells, LN cells from untreated EAU mice were cultured with IRBP peptide in the presence of AICAR (FIGS. 10A-10E). Specifically, LN cells were resuspended at 5×10^5 cells per 200 μl of medium in 96-well flat-bottom plates. Triplicate samples of cells were stimulated with or without IRBP at the indicated concentrations. AICAR was added at the indicated concentrations. Cell proliferation and cytokine production were measured as previously described in Example 10.

[2] = test system: TNF-α, IL-6 and IFN-γ in the retina; assay: Retinal cytokine mRNA (real-time PCR) and protein (ELISA) in EAU mice; assay type: in vivo, C57BL/6 (WT) mice
[3] = test system: splenic DCs; assay: Splenic DC co-stimulatory molecule expression in EAU mice (FACS); assay type: in vivo; settings: AICAR-treated vs non-treated EAU mice; twelve days after immunization
Description: To investigate whether DC maturation was affected by AICAR, splenic DCs were isolated from EAU mice and analyzed for co-stimulatory molecule expression. Specifically, spleen cells from 4 to 5 EAU mice were pooled at twelve days after immunization and incubated with the following monoclonal antibodies: anti-CD11c (N418), CD40 (3/23), CD80 (16-10A1), CD86 (GL-1), I-A^b (AF6-120.1) (Biolegend). Spleen cells were gated on the basis of forward and side scatter profile and propidium iodide or DAPI exclusion. Samples of 1×10^6 cells were analyzed by LSR (Becton Dickinson, Franklin Lakes, N.J.).

[4] = test system: adherent leukocytes in retinal vessels; assay: Leukocyte adhesion to retinal vessels (Concanavalin A lectin staining); assay type: in vivo, Lewis rats
Description: Male Lewis rats ranging from 6-8 weeks old (Charles River, Wilmington, Mass.) were used for these studies. To study the effects of AICAR pretreatment, AICAR and PBS (for placebo treatment) were delivered via intraperitoneal injection of AICAR (50 mg/kg or 100 mg/kg body weight; Sigma) diluted in 150 μl PBS or equal volume of PBS at 6 hours before and at the same time as LPS injection. Four experimental groups of rats were compared: (1) Normal: no treatment (2) AICAR: normal rats treated with AICAR 6 hours before examination; (3) LPS: EIU rats treated with PBS; (4) LPS+AICAR: EIU rats treated with AICAR. Two additional groups of rats were used to study the effects of AICAR (50 mg/kg) given either at the same time as LPS injection or at 6 hours after LPS injection. Inflammation in the posterior segment of the eye is seen in EIU with the adherence of recruited leukocytes to the retinal vascular endothelium (Koizumi et al. (2003) INVEST. OPHTHALMOL. VIS. SCI. 44:2184-2191). Leukocyte adhesion to the retinal vessels was evaluated at 24 hours after EIU induction by using the Concanavalin A (Con A) lectin staining technique (Smith et al. (1994) INVEST. OPHTHALMOL. VIS. SCI. 35:101-111). […] The flatmounts were imaged using an epifluorescence microscope (DM RXA; Leica) and the total number of Con A-stained adherent leukocytes per retina was counted.

[5] = test system: lymph node (LN) cells; assay: Proliferation, cytokine production and transcription factor expression of LN cells from AICAR-treated EAU mice; assay type: in vivo, C57BL/6 (WT) mice
Description: To extract LN cells, draining lymph nodes from 6 to 8 mice were isolated at sixteen days after immunization and pooled. Single cell suspensions were made using a cell strainer (BD, Franklin Lakes, N.J.). CD4 T cell-enriched fractions were prepared using CD4 Microbeads (Miltenyi Biotec GmbH, Bergisch Gladbach, Germany), and purity of the suspensions was determined by staining with anti-CD4 antibody (GK1.5, Biolegend, San Diego, Calif.) and flow cytometry. All experimental samples of CD4 T cell-enriched fractions were at least 95% CD4-positive. To measure cell proliferation, LN cells were resuspended at 5×10^5 cells per 200 μl of medium in 96-well flat-bottom plates. Cells were incubated for 72 hours and proliferation during the last 12 hours was measured by using a bromodeoxyuridine (BrdU) cell proliferation assay kit (Millipore, Billerica, Mass.). Supernatant in the culture medium was collected at 48 hours and cytokine production in the supernatant was measured by ELISA using the Quantikine mouse IFN-γ, IL-4, IL-10 and IL-17 kits (R&D system, Minneapolis, Minn.). To measure the expression of T-bet and RORγt, real-time PCR was carried out as described above using the following TaqMan gene expression assays: T-bet (Mm00450960_m1) and RORγt (Mm01261022_m1). Quantitative expression data were acquired and analyzed with a Step One Plus real-time PCR system (Applied Biosystems). In order to assess the in vivo effect of AICAR on the development of IRBP-reactive T cells, LN cells from control and AICAR-treated mice were stimulated with either IRBP or a non-specific T cell stimulator, anti-CD3. Proliferative response was measured with BrdU incorporation. […] In comparison, when the cells were treated with anti-CD3, there was no difference in T cell proliferation between the AICAR treated and control mice (FIG. 8B).

[6] = AICAR 200 mg/kg treated EAU mice vs control EAU mice
[7] = AICAR-treated EAU mice, real-time PCR
[8] = LN cells from AICAR-treated EAU mice, ELISA

## NC(=O)c1ncn([C@@H]2O[C@H](CO)[C@@H](O)[C@H]2O)c1N [AICAR, 5-aminoimidazole-4-carboxamide-1-β-d-ribofuranoside]
[1]
  IFN-γ production in vitro: suppressed
  IL-4 production in vitro: not significantly induced
  IL-10 production in vitro: suppressed
  IL-17 production in vitro: suppressed
  T cell proliferation in vitro: suppressed
[2]; [6]
  IFN-γ mRNA in retina: significantly reduced
  IL-6 mRNA in retina: significantly reduced
  TNF-α mRNA in retina: significantly reduced
[2]; AICAR 200 mg/kg treated EAU mice, 21 days after immunization, ELISA
  IL-6 protein level in retina: suppressed
[3]
  CD40, CD80, CD86 and I-A^b expression on splenic DCs: no difference
[4]; AICAR 50 mg/kg pretreatment, 24 h after LPS, n=11, EIU rats 1163±244
  Number of Con A-stained adherent leukocytes per retina: 576±249 cells
[4]; normal rats, AICAR only, n=6
  Adherent leukocytes in AICAR-only-treated rats: few adherent leukocytes
[5]; [7]
  RORγt mRNA expression in CD4 T cells: suppressed
  T-bet mRNA expression in CD4 T cells: suppressed
[5]; LN cells from AICAR treated vs control mice
  T cell proliferation (BrdU), anti-CD3 stimulation: no difference
[5]; [8]
  IFN-γ production by LN cells: significantly suppressed
  IL-10 production by LN cells: significantly suppressed
  IL-17 production by LN cells: significantly suppressed
[5]; LN cells from AICAR-treated vs untreated EAU mice, dose-dependent manner
  Antigen-specific T cell proliferation (BrdU), IRBP stimulation: suppressed
